# Measured values published in patent US10485769B2, “Cholesteryl ester transfer protein (CETP) inhibition in the treatment of cancer” (KING ABDULLAH UNIVERSITY OF SCIENCE AND TECHNOLOGY, priority 2015, dated 2019).
# Assays:
# MCF-7 cells [1] = assay: Mitochondrial Outer Membrane Potential (MOMP) by flow cytometry; format: cell-based, human; conditions: 10 μM PL, AP; 100 mM H2O2 positive control; versus untreated cells
# Protocol: FIG. 2: Mode of induction in MCF-7 cells after treatment with AP and PL was determined by measuring changes in MOMP and levels of apoptosis-associated proteins. The cells were incubated with 10 μM AP and PL for different time intervals to capture the timeline of apoptosis induction in MCF-7 cells. The changes in MOMP were measured using flow cytometry after treating MCF-7 cells with PL and AP for 1, 2 and 4 h (A). The alteration in expression of several apoptosis-associated proteins were determined using western blotting after incubating MCF-7 cells for 1, 2, 4, 6 h with PL (C, E) and AP (D. F).
# The changes in Mitochondrial Outer Membrane Potential (MOMP) and proteins involved in the apoptotic cascade were assessed (FIG. 2).
# CETP = CETP mRNA in mice tumor samples, qRT-PCR; format: in vivo; conditions: 2 mg/kg PL, 5 mg/kg AP
# Protocol: FIG. 7: Levels of CETP mRNA in tumor (A) and protein in serum (B) in mice tumor samples after treatment with 2 mg/kg PL or 5 mg/kg AP were determined with the RT-PCR and western blotting, respectively. Fold change in expression of serum protein was determined using densitometry analysis of western blots using ImageJ (C). CETP activity in serum was estimated using CETP activity kit (name of kit/manufacturer) (D). Values represent the means±SD of three independent experiments. * where p≤0.05, and ** where p≤0.005.
# We performed qRT-PCR using mRNA isolated from mice tumor samples to determine the expression of CETP after treatment with PL and AP (FIG. 7A). […] CETP mRNA is translated into 74 kD protein comprised of 476 amino acids that localizes in plasma. […] CETP protein levels in mice serum samples were determined by western blotting (FIG. 7B).
# BJ CETP knockdown cells = assay: Apoptosis in BJ CETP knockdown cells; format: cell-based, human; conditions: 10 μM PL or AP
# Protocol: FIG. 10: The effect of CETP mRNA silencing on MMP (A), Capase-3/7 activity (B) and apoptosis in MCF-7 (C) and BJ (D) untransfected, cntl siRNA and CETP knockout cells after treatment with 10 μM PL or AP. Values represent the means±SD of three independent experiments.
# Next, we intended to see if CETP silencing increased sensitivity of MCF-7 cells to apoptosis.
# MCF-7 tumors = assay: Efficacy in MCF-7 xenograft nude mouse model of BC; format: in vivo, nude mice; conditions: 21 days
# Protocol: FIG. 3: Comparative efficacy and toxicity study in MCF-7 xenograft nude mouse model of BC. The efficacy of single i.p. injection of vehicle, PL (2 mg/kg) and AP (5 mg/kg) in 5 mice in each group was compared over a period of 21 days.
# MCF-7 tumors grown up to 300 mm3 in four nude mice were harvested, dissected into 1-2 mm3 fragments and implanted into the study group for further testing. Nude mice (with tumor volume of 150 mm3) were treated with 25% Polyethylene glycol (PEG) 400 as vehicle, 2 mg/kg PL and 5 mg/kg AP for 21 days during which tumor volume, body weight and, at the time of sacrifice, tumor weight was measured.
# MCF-7 cells [2] = assay: Total cholesterol in cells, Amplex Red Cholesterol kit; format: cell-based, human; conditions: 10 μM, within 2 h, compared to untreated cells
# Protocol: (§1) FIG. 5: Cholesterol depletion by PL and AP. BJ, BT20 and MCF-7 cells were treated with 10 μM PL or AP for 2 h and cholesterol levels were determined with the Amplex Red Cholesterol kit as per manufacturer's instructions. Cells treated with 5 mg/ml MBCD was used as a positive control and fluorescence was measured with a Tecan plate reader. MCF-7 cells were pre-incubated with 1 mM cholesterol for 1 h followed by treatment with 10 μM PL or AP for 2 h (A). Apoptosis was determined by flow cytometry with the APOPercentage kit or Cells treated with MBCD and 5 mM H2O2 served as positive controls (B). Values represent the means±SD of three independent experiments.
# Next, we determined the effects of PL and AP on cholesterol levels in cells. Within 2 h of treatment with PL or AP, total cholesterol was reduced by 35% in MCF-7 cells as compared to untreated cells (FIG. 5). To test whether cholesterol depletion occurred in other cell types or if this was limited to ER positive BC cells, BJ and BT20 cells were also treated with PL or AP (Fig.).
# MCF-7 cells [3] = assay: MTT assay, viability of MCF-7 cells; conditions: for effect on cell viability: 1 and 2.5 μM, 24 h
# Protocol: FIG. 1: MTT and APOPercentage assays to assess the differential cytotoxicity and apoptosis inducing potential of AP and PL in MCF-7 cells. Viability was determined using MTT assay after incubating the MCF-7 cells with different concentrations of AP and PL (A), at different time-points (B). The apoptosis inducing potential of 10 μM AP and PL in MCF-7 was determined by using APOPercentage assay performed at intervals of 2 and 6 h.
# The activities of a compound described herein can be evaluated by methods known in the art, e.g., MTT (3-[4,5-dimethylthiazol-2-yl]-2,5-diphenyltetrazolium bromide) assay, APOPercentage, clonogenic assay, ATP assay, or Extreme Drug Resistance (EDR) assay. See Freuhauf, J. P. and Manetta, A., Chemosensitivity Testing in Gynecologic Malignancies and Breast Cancer 19, 39-52 (1994), which is incorporated by reference in its entirety. The results are then plotted to generate drug response curves, which allow IC50 values (the concentration of a compound required to inhibit 50% of the population of the treated cells) to be determined. […] In general, however, a dose can be in the range of from about 0.01 to about 10 mg/kg of body weight per day.
# As a first step, MCF-7 cells were treated with 1, 2.5, 5 and 10 μM PL or AP for 24 h and percentage viability was determined after 24 h using the MTT assay. […] Next the effect of 10 μM PL drug on cell viability over time was determined. […] The percentage of cells undergoing apoptosis at the early time points i.e. 2 and 6 h was determined by the APOPercentage assay. APOPercentage dye binds to extracellularly exposed phosphatidylserine (PS) on the plasma membrane of apoptotic cells.
# [4] = tested on: lipid rafts of MCF-7 cells; assay: Lipid raft GM1 staining (CT-B Alexa 488); format: cell-based, human; conditions: 10 μM, over time (10 min to 2 h)
# Protocol: FIG. 4: Lipid raft GM1 staining in MCF-7 cells with the Vybrant® Alexa Fluor® 488 Lipid Raft Labeling Kit. Cells were cultured in 96-well plates and stained with CT-B Alexa 488 in untreated cells, and after treatment with 10 μM PL or AP for 10 min, 30 min, 1 h and 2 h.
# Cholesterol plays an integral role in the formation of lipid rafts, steroid hormone synthesis and cell membrane formation. […] Cancer cells have a greater affinity for cholesterol to pace with demands of proliferation and synthesis of new membranes and lipid rafts. Pathway predictions derived from microarray expression data pointed at the impairment of cholesterol related processes by AP. To confirm whether cholesterol related pathways were affected by PL or AP, we performed lipid raft staining in MCF-7 cells and cholesterol quantitation in both MCF-7 cells and plasma samples obtained from mice. […].
# MCF-7 cells [5] = assay: APOPercentage assay, apoptosis in MCF-7 cells; format: cell-based, human; conditions: 10 μM
# Protocol: as §1
# Next we asked if addition of cholesterol can rescue MCF-7 cells from undergoing apoptosis when treated with PL or AP.
# [6] = 2 h, after pre-incubation with 1 mM cholesterol for 1 h
# [7] = 2 h, without addition of cholesterol
Compound,"MOMP, fluorescence in the FL-2 channel (MCF-7 cells [1])",reduction of CETP expression in tumors (mRNA) (CETP),sensitivity to apoptosis (BJ CETP knockdown cells),"reduction of tumor volume (MCF-7 tumors; 2 mg/kg PL, 5 mg/kg AP)",inhibition of tumor growth (MCF-7 tumors; 5 mg/kg AP) [%],reduction of total cholesterol (MCF-7 cells [2]) [%],"cell viability reduced to (MCF-7 cells [3]; 10 μM, as early as 6 h) [%]",effect on cell viability (MCF-7 cells [3]),distribution of lipid rafts (GM1 in plasma membranes) [4],level of apoptosis (MCF-7 cells [5]; 2 h) [%],apoptosis (MCF-7 cells [5]; [6]),apoptosis (MCF-7 cells [5]; [7]) [%],level of apoptosis (MCF-7 cells [5]; 6 h) [%],tumor weight in comparison to vehicle (MCF-7 tumors; 2 mg/kg PL),"viability at 10 µM (MCF-7 cells [3]; Homo sapiens, MCF7, 6 h, read-out: cell viability reduced to) [%]"
"CC(=O)Oc1cccc2c1C(=O)C=C(C)C2=O [AP, Acetyl Plumbagin]",lower fluorescent values,60%,no increased sensitivity to apoptosis,37%,45,35,50,no significant effect,disrupted,~20,negligible,20,~45,,
"CC1=CC(=O)c2c(O)cccc2C1=O [PL, 5-hydroxy-2-methyl-1,4-naphthoquinone, reference compound]",lower fluorescent values,no effect,no increased sensitivity to apoptosis,approximately 17%,,35,,no significant effect,disrupted,~20,10%,30,~45,no difference,50
